The results in this text go back to ChEMBL document CHEMBL1949582, “Suppression of nitric oxide production on LPS/IFN-γ-stimulated RAW264.7 macrophages by a novel catechin, pilosanol N, from Agrimonia pilosa Ledeb” (Bioorg Med Chem Lett, 2012).

In data set [1] the test system is RAW264.7. The data set is described as follows: Antiinflammatory activity in mouse RAW264.7 cells assessed as inhibition of LPS/IFN-gamma-induced NO production at 25 to 100 uM after 20 hrs by Griess method. The format is functional, cell-based.
For data set [2], the system named is RAW264.7. The data set can be described thus: Cytotoxicity against mouse RAW264.7 cells assessed as cell viability at 25 to 100 uM by MTT assay. The settings on record: raw264.7, 100 µM. In kind it is cell-based. Background: Tetrazolium assays rely on reduction of a dye to a coloured formazan, in cell work by metabolically active cells.
Data set [3] is described as follows: Antioxidant activity in PBS buffer assessed as nitric oxide scavenging activity by measuring inhibition of nitrite production from NOR3 after 60 mins. In kind it is functional.
Data set [4] deals with RAW264.7. The data set can be described thus: Antiinflammatory activity in mouse RAW264.7 cells assessed as inhibition of LPS/IFN-gamma-induced iNOS gene expression at 25 uM by RT-PCR analysis. The format is functional.
Data set [5] has as its system RAW264.7. The data set is described as follows: Antiinflammatory activity in mouse RAW264.7 cells assessed as inhibition of LPS/IFN-gamma-induced NO production after 20 hrs by Griess method. The format is functional, cell-based.
Data set [6] deals with RAW264.7. The data set can be described thus: Antiinflammatory activity in mouse RAW264.7 cells assessed as inhibition of LPS/IFN-gamma-induced iNOS protein production at 100 uM by RT-PCR analysis. In kind it is functional, cell-based.
Data set [7] concerns RAW264.7. The data set is described as follows: Protection against LPS/IFN-gamma-induced cell damage in mouse RAW264.7 cells by MTT assay. In kind it is functional, cell-based.

Activity calls are given as the source filed them. The calls are words filed in the database; no cut-off is given here.

Usually inhibition stands for the drop in the measured response relative to a control, in per cent. With `C[C@@H]1O[C@@H](Oc2c(-c3ccc(O)c(O)c3)oc3cc(O)cc(O)c3c2=O)[C@H](O)[C@H](O)[C@H]1O`, the inhibition entry in data set [1] is “Active”.
Take `COc1c(C)c(O)c(Cc2c(O)cc(O)c3c2O[C@H](c2ccc(O)c(O)c2)[C@@H](O)C3)c(O)c1C(C)=O` [PILOSANOL N]: the Activity entry in data set [2] is “Non-toxic”; in data set [7], “Dose-dependent effect”. In addition, the inhibition result in data set [3] and in data set [5] was “Dose-dependent effect” throughout. Moreover, in data set [4], the inhibition at 25 µM amounted to 60%. For the same compound, in data set [6], the inhibition result was “Active”.
